# Results reported in publication PMC9030381, “The Discovery of Potent SHP2 Inhibitors with Anti-Proliferative Activity in Breast Cancer Cell Lines” (International Journal of Molecular Sciences, 2022).
# What was measured:
# SHP2 = molecular target: T1, SHP2 (Homo sapiens, UniProt Q06124); test: Enzymatic SHP2 inhibition assay (pNPP phosphatase activity); format: biochemical; conditions: for inhibition at 100 µM: read-out: inhibition of SHP2 enzyme; for IC50: pNPP substrate, read-out: SHP2 Obtained IC50
# T1 construct: purchased BPS Bioscience, Inc., San Diego, CA, USA
# T1 sequence (Q06124 1-593): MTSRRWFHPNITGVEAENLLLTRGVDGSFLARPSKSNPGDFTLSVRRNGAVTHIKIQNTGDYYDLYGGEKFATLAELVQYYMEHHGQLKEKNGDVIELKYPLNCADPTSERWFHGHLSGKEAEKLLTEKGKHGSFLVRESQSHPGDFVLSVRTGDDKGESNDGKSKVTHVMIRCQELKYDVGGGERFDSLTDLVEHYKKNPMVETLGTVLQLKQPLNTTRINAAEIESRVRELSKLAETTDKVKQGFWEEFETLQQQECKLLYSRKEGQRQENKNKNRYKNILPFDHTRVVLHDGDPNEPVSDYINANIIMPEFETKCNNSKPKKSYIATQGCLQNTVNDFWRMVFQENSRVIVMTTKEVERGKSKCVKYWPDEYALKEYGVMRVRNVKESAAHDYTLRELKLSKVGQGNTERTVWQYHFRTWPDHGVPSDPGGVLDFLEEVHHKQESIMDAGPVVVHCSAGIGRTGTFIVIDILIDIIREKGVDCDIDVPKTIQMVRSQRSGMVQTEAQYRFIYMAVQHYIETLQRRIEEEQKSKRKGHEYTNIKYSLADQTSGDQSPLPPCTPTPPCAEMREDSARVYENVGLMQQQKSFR
# Method: Phosphatase Activity Assay (PTP) using p-nitrophenyl phosphate (pNPP) as a substrate was carried out in a total volume of 100 µL. This was done by monitoring the increase in phosphatase absorbance at 405 nm in the presence of the substrate using 96-well microplate reader (Thermo Scientific Multiskan GO, Waltham, MA, USA). The standard reaction mixture consisted of PTP buffer (100 mM NaCl, 2 mM EDTA, 50 mM HEPES, 3 mM DTT, pH 7.4), 100 nM of Shp2 (BPS Bioscience, Inc., San Diego, CA, USA), and 1 mM of pNPP incubated for 90 min at 30 °C. The enzymatic reaction was stopped by the addition of 50 µL of 5 M NaOH. For inhibition reaction, SHP2 enzyme was preincubated with 100 µM compound or their vehicle (DMSO) for 5 min at 37 °C, prior to the incubation with pNPP substrate for 90 min at 30 °C. The same method was used to calculate IC50 values using GraphPad Prism software 8.0 (San Diego, CA, USA). Wells with SHP2 substrate and without compounds were considered controls (enzyme activity is 100%).
# SHP1 = SHP1 (Homo sapiens, UniProt P29350); test: Enzymatic SHP1 inhibition assay (selectivity); format: biochemical; conditions: read-out: SHP1 Obtained IC50
# MCF-7 [1] = test: Cell proliferative assay (DAPI cell count); format: cell-based; conditions: at 20 μM, 48 h, in comparison with the vehicle
# Method: (§1) The 5 × 10^3 cells/well of MCF-7 or MDA-MB-231cell-lines were seeded in 96 well plates. The next day, cells were treated with 0.16, 0.8, 4, and 20 µM of NSC 13030, 24198, 57774, 137420, or DMSO (Sigma-Aldrich–Cat D9170, St. Louis, MO, USA) as control. After 48 h of incubation, cells were stained with DAPI (Thermo Fischer–Cat R37606, Waltham, MA, USA) and images of the entire wells were taken with a 20× objective and a DAPI filter cube using Lionheart FX automated microscope. The image analysis and cell counts were done using Gen5 software. All conditions were done in triplicates.
# MCF-7 [2] = test: Cell viability assay (CellTiter 96 AQueous One); format: cell-based; conditions: at 20 μM, 48 h
# Method: (§2) The percentage of viable cells was determined using The CellTiter 96® AQueous One Solution Cell Proliferation Assay (Promega–Cat G3580, Madison, WI, USA). Briefly, 5 × 10^3 cells/well of MCF-7 or MDA-MB-231 were plated in a 96 well culture plate in a total volume of 100 µL/well. The next day, cells were treated with 0.16, 0.8, 4, and 20 µM of NSC 13030, 24198, 57774, 137420, or DMSO as control. After 48 h, 20 µL of CellTiter 96 AQuoeus one solution reagent was added in each well, and incubated for 4 h in a CO2 incubator at 37 °C. The percentage of living cells was calculated by dividing the OD (490 nm) of treated cells by the same concentration of DMSO controls. All conditions were done in triplicates.
# MDA-MB-231 [3] = test: Cell proliferative assay (DAPI cell count); format: cell-based; conditions: at 20 μM, 48 h, in comparison with the vehicle
# Method: as §1
# MDA-MB-231 [4] = test: Cell viability assay (CellTiter 96 AQueous One); format: cell-based; conditions: at 20 μM, 48 h
# Method: as §2
# SHP1, sequence (P29350 whole entry): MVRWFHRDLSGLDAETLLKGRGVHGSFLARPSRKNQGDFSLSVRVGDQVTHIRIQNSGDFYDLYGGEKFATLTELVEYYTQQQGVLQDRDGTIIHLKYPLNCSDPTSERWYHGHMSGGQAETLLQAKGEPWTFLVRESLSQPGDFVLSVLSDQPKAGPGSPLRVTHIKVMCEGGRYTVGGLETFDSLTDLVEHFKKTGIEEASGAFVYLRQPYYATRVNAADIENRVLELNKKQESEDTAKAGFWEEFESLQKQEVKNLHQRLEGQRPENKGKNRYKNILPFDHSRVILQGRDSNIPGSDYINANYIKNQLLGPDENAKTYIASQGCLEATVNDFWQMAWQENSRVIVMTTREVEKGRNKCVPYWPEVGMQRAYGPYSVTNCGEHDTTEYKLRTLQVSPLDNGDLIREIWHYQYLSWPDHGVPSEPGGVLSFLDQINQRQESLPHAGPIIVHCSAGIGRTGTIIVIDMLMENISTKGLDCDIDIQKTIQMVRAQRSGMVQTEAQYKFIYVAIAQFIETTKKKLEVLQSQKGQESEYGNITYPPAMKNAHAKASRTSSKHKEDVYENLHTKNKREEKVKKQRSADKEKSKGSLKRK
Structure (SMILES),inhibition at 100 µM (SHP2; at 100 μM compound) [%],IC50 (SHP2) [µM],IC50 (SHP1) [µM],"selectivity, inhibition activity towards SHP2 over SHP1 (SHP2; SHP2 over SHP1) [fold]","inhibition of SHP2 enzyme (SHP2; at 100 μM compound, 100 µM)",reduction of MCF-7 proliferation (MCF-7 [1]) [%],reduction of MCF-7 viability (MCF-7 [2]) [%],reduction of MDA-MB-231 proliferation (MDA-MB-231 [3]) [%],reduction of MDA-MB-231 viability (MDA-MB-231 [4]) [%]
COc1ccc2nc3cc(Cl)ccc3c(SC(CC(=O)O)C(=O)O)c2c1 (centres unmarked) [Compound 13030],98,3.2,85.4,,,42.1,64.4,,
O=C(O)CSC(Nc1ccccc1C(=O)O)c1ccccc1 (centres unmarked) [Compound 24198],99,1.9,14.3,,,34.7,65.2,,
Cc1c2oc3c(C)ccc(C(=O)O)c3nc-2c(C(=O)O)c(N)c1=O [Compound 57774],,0.8,164,200,complete SHP2 inhibition,74.5,65.8,64,36.2

# More lines, main results first:
inhibition at 100 µM (SHP2; at 100 μM compound) [%],IC50 (SHP2) [µM],IC50 (SHP1) [µM],"selectivity, inhibition activity towards SHP2 over SHP1 (SHP2; SHP2 over SHP1) [fold]","inhibition of SHP2 enzyme (SHP2; at 100 μM compound, 100 µM)",Structure (SMILES),reduction of MCF-7 proliferation (MCF-7 [1]) [%],reduction of MCF-7 viability (MCF-7 [2]) [%],reduction of MDA-MB-231 proliferation (MDA-MB-231 [3]) [%],reduction of MDA-MB-231 viability (MDA-MB-231 [4]) [%]
71,33,,,,O=C(c1ccccc1)c1ccc2c(Cl)ccc(C(=O)O)c2c1C(=O)O [Compound 137420],,,,
79,4.5,15.4,,,"Cc1ccc(C(=O)Nc2ccc(S(=O)(=O)O)c3cc(S(=O)(=O)O)cc(S(=O)(=O)O)c23)cc1NC(=O)c1cccc(NC(=O)Nc2cccc(C(=O)Nc3cc(C(=O)Nc4ccc(S(=O)(=O)O)c5cc(S(=O)(=O)O)cc(S(=O)(=O)O)c45)ccc3C)c2)c1 [Suramin, reference compound]",,,,
